Results on 20 molecules are retold here after PMC12306498, “Microwave-assisted synthesis of tubulin assembly inhibitors as anticancer agents by aryl ring reversal and conjunctive approach” (RSC Medicinal Chemistry, 2025).

“And” between values parts separate entries of the source, which are not always exact repeats. Equal entries are not always repeated. Where two headings read alike, the source gives them in different places. Some results are limits rather than exact numbers.

Usually IC50 stands for the concentration that inhibits the measured activity by half.

Assay [1] concerns tubulin. Kind of assay: Inhibition of [3H]colchicine binding to tubulin. To be noted: for Colch. binding (% ± SD): inhibition of [3H]colchicine binding, tubulin, [3H]colchicine, inhibitor at 1, 5 and 5 μM. The protocol: The reaction mixtures contained 1.0 μM tubulin, 5.0 μM [^3H]colchicine, and 5.0 or 1.0 μM inhibitor, as indicated, and were incubated for 10 min at 37 °C. Complete details were described previously.[36]

The test system of assay [2] is tubulin. Kind of assay: Inhibition of tubulin polymerization (tubulin assembly, turbidity at 350 nm). To be noted: tubulin at 10 μM, read-out: Tubulin IC50 ± SD. The format is biochemical. The procedure: The assembly reaction mixtures contained 0.8 M monosodium glutamate (pH 6.6 with HCl in a 2 M stock solution), 10 μM tubulin, 4% (v/v) DMSO, and varying concentrations of drug. Following a 15 min preincubation at 30 °C, samples were chilled on ice, GTP to 0.4 mM was added, and turbidity development was followed at 350 nm in a temperature-controlled recording spectrophotometer for 20 min at 30 °C. The extent of reaction was measured. Full experimental details were previously described.[35]

Assay [3] concerns MCF-7 human breast carcinoma cells. The experiment in a line: MCF-7 cell growth inhibition. The format is cell-based. The settings on record: Homo sapiens, read-out: MCF-7 IC50 ± SD.

As for `COc1ccc(/C=C\c2cc(OC)c(OC)c(OC)c2)cc1O` [CA4, combretastatin A-4, reference compound], the “Inhibition of [3H]colchicine binding” value in assay [1] (inhibitor at 1 μM, tubulin 1 μM, [3H]colchicine 5 μM) worked out at 78%.

For the molecule `COc1cc(C(=O)c2cn(-c3ccccn3)cc2-c2ccc(C)cc2)cc(OC)c1OC` [Compound 3, (1-(Pyridin-2-yl)-4-(4-tolyl)-1H-pyrrol-3-yl)(3,4,5-trimethoxyphenyl)methanone], in assay [1], the “Colch. binding (% ± SD)” value is 59 ± 0.9%. The IC50 in assay [2] was 500 ± 100 nM; in assay [3] (MCF7, cells grown for 96 h), 1500 ± 200 nM.

As to `COc1cc(C(=O)c2cn(-c3ccccn3)cc2-c2ccc(C(F)(F)F)cc2)cc(OC)c1OC` [Compound 5, (1-(Pyridin-2-yl)-4-(4-(trifluoromethyl)phenyl)-1H-pyrrol-3-yl)(3,4,5-trimethoxyphenyl)methanone], the “Colch. binding (% ± SD)” value in assay [1] came to 3.2 ± 5%. The IC50 in assay [2] worked out at 2000 ± 100 nM; in assay [3] (MCF7, cells grown for 96 h), 652 ± 12.6 nM.

In the case of `COc1cc(C(=O)c2cn(-c3ccccn3)cc2-c2ccc(Cl)cc2)cc(OC)c1OC` [Compound 6, (4-(4-Chlorophenyl)-1-(pyridin-2-yl)-1H-pyrrol-3-yl)(3,4,5-trimethoxyphenyl)methanone], the “Colch. binding (% ± SD)” value in assay [1] is recorded as 66 ± 3%. The IC50 in assay [2] was 520 ± 5 nM; in assay [3] (MCF7, cells grown for 96 h), 340 ± 60 nM.

Consider `COc1cc(C(=O)c2cn(-c3ccccn3)cc2-c2ccc(N(C)C)cc2)cc(OC)c1OC` [Compound 7, (4-(4-(Dimethylamino)phenyl)-1-(pyridin-2-yl)-1H-pyrrol-3-yl)(3,4,5-trimethoxyphenyl)methanone], for which the “Colch. binding (% ± SD)” value in assay [1] was 72% and 72 ± 0.2%. The IC50 in assay [2] turned out to be 430 ± 40 nM; in assay [3] (MCF7, cells grown for 96 h), 120 ± 40 nM.

On to `COc1cc(OC)cc(-c2cn(-c3ccccn3)cc2C(=O)c2cc(OC)c(OC)c(OC)c2)c1` [Compound 8, (4-(3,5-Dimethoxyphenyl)-1-(pyridin-2-yl)-1H-pyrrol-3-yl)(3,4,5-trimethoxyphenyl)methanone], for which the “Colch. binding (% ± SD)” value in assay [1] is given as 21 ± 5%. Moreover, the IC50 in assay [2] was determined as 1600 ± 200 nM; in assay [3] (MCF7, cells grown for 96 h) it was 2200 ± 400 nM.

In the case of `COc1cc(C(=O)c2cn(-c3cccnc3)cc2-c2ccc(C)cc2)cc(OC)c1OC` [Compound 9, (1-(Pyridin-3-yl)-4-(4-tolyl)-1H-pyrrol-3-yl)(3,4,5-trimethoxyphenyl)methanone], the “Colch. binding (% ± SD)” value in assay [1] is recorded as 20 ± 5%. Also, the IC50 in assay [2] turned out to be 1900 ± 200 nM; in assay [3] (MCF7, cells grown for 96 h), 670 ± 200 nM.

With `COc1ccc(-c2cn(-c3cccnc3)cc2C(=O)c2cc(OC)c(OC)c(OC)c2)cc1` [Compound 10, (4-(4-Methoxyphenyl)-1-(pyridin-3-yl)-1H-pyrrol-3-yl)(3,4,5-trimethoxyphenyl)methanone], the “Colch. binding (% ± SD)” value in assay [1] turned out to be 29 ± 0.8%. The IC50 amounted to 840 ± 20 nM in assay [2] and 758 ± 9.3 nM in assay [3] (MCF7, cells grown for 96 h).

As for `COc1cc(C(=O)c2cn(-c3cccnc3)cc2-c2ccc(Cl)cc2)cc(OC)c1OC` [Compound 11, (4-(4-Chlorophenyl)-1-(pyridin-3-yl)-1H-pyrrol-3-yl)(3,4,5-trimethoxyphenyl)methanone], in assay [1], the “Colch. binding (% ± SD)” value is given as 29 ± 4%. Also, the IC50 in assay [2] was 1500 ± 200 nM; in assay [3] (MCF7, cells grown for 96 h), 1500 ± 400 nM.

As for `COc1cc(C(=O)c2cn(-c3cccnc3)cc2-c2ccc(C(F)(F)F)cc2)cc(OC)c1OC` [Compound 12, (1-(Pyridin-3-yl)-4-(4-(trifluoromethyl)phenyl)-1H-pyrrol-3-yl)(3,4,5-trimethoxyphenyl)methanone], the IC50 is > 20000 nM in assay [2] and 3900 ± 70 nM in assay [3] (MCF7, cells grown for 96 h).

On to `COc1cc(C(=O)c2cn(-c3cccnc3)cc2-c2ccc(N(C)C)cc2)cc(OC)c1OC` [Compound 13, (4-(4-(Dimethylamino)phenyl)-1-(pyridin-3-yl)-1H-pyrrol-3-yl)(3,4,5-trimethoxyphenyl)methanone], for which the “Colch. binding (% ± SD)” value in assay [1] is 9.6 ± 4%. Moreover, the IC50 in assay [2] was found to be 3400 ± 300 nM; in assay [3] (MCF7, cells grown for 96 h), 1000 ± 100 nM.

As to `COc1cc(C(=O)c2cn(-c3ncccn3)cc2-c2ccc(C)cc2)cc(OC)c1OC` [Compound 14, (1-(Pyrimidin-2-yl)-4-(4-tolyl)-1H-pyrrol-3-yl)(3,4,5-trimethoxyphenyl)methanone], in assay [1], the “Colch. binding (% ± SD)” value worked out at 54 ± 3%. The IC50 came out at 1300 ± 40 nM in assay [2] and 170 ± 50 nM in assay [3] (MCF7, cells grown for 96 h).

In the case of `COc1ccc(-c2cn(-c3ncccn3)cc2C(=O)c2cc(OC)c(OC)c(OC)c2)cc1` [Compound 15, (4-(4-Methoxyphenyl)-1-(pyrimidin-2-yl)-1H-pyrrol-3-yl)(3,4,5-trimethoxyphenyl)methanone], in assay [1], the “Colch. binding (% ± SD)” value is on record as 65 ± 5%. The IC50 stood at 1100 ± 100 nM in assay [2] and 95 ± 20 nM in assay [3] (MCF7, cells grown for 96 h).

For `COc1cc(OC)cc(-c2cn(-c3ncccn3)cc2C(=O)c2cc(OC)c(OC)c(OC)c2)c1` [Compound 16, (4-(3,5-Dimethoxyphenyl)-1-(pyrimidin-2-yl)-1H-pyrrol-3-yl)(3,4,5-trimethoxyphenyl)methanone], the “Colch. binding (% ± SD)” value in assay [1] turned out to be 25 ± 5%. In addition, the IC50 amounted to 1100 ± 60 nM in assay [2] and 780 ± 40 nM in assay [3] (MCF7, cells grown for 96 h).

For `COc1cc(C(=O)c2cn(-c3ncccn3)cc2-c2cc(OC)c(OC)c(OC)c2)cc(OC)c1OC` [Compound 17, (1-(Pyrimidin-2-yl)-4-(3,4,5-trimethoxyphenyl)-1H-pyrrol-3-yl)(3,4,5-trimethoxyphenyl)methanone], the IC50 is > 20000 nM in assay [2] and > 5000 nM in assay [3] (MCF7, cells grown for 96 h).

On to `COc1cc(C(=O)c2cn(-c3ncccn3)cc2-c2ccc(F)cc2)cc(OC)c1OC` [Compound 18, (4-(4-Fluorophenyl)-1-(pyrimidin-2-yl)-1H-pyrrol-3-yl)(3,4,5-trimethoxyphenyl)methanone], for which the “Colch. binding (% ± SD)” value in assay [1] turned out to be 70 ± 1%. Further, the IC50 in assay [2] is 2400 ± 80 nM; in assay [3] (MCF7, cells grown for 96 h), 150 ± 7 nM.

As for `COc1cc(C(=O)c2cn(-c3ncccn3)cc2-c2ccc(C(F)(F)F)cc2)cc(OC)c1OC` [Compound 19, (1-(Pyrimidin-2-yl)-4-(4-(trifluoromethyl)phenyl)-1H-pyrrol-3-yl)(3,4,5-trimethoxyphenyl)methanone], the “Colch. binding (% ± SD)” value in assay [1] is listed as 18 ± 4%. For the same molecule, the IC50 came out at 2800 ± 100 nM in assay [2] and 530 nM in assay [3] (MCF7, cells grown for 96 h).

With `COc1cc(C(=O)c2cn(-c3ncccn3)cc2-c2ccc(Cl)cc2)cc(OC)c1OC` [Compound 20, (4-(4-Chlorophenyl)-1-(pyrimidin-2-yl)-1H-pyrrol-3-yl)(3,4,5-trimethoxyphenyl)methanone], in assay [1], the “Colch. binding (% ± SD)” value is listed as 69 ± 4%. Further, the IC50 was 760 ± 100 nM in assay [2] and 68 ± 10 nM in assay [3] (MCF7, 96 h, cells grown for 96 h).

Take `COc1cc(C(=O)c2cn(-c3ncccn3)cc2-c2ccc([N+](=O)[O-])cc2)cc(OC)c1OC` [Compound 21, (4-(4-Nitrophenyl)-1-(pyrimidin-2-yl)-1H-pyrrol-3-yl)(3,4,5-trimethoxyphenyl)methanone]: the “Colch. binding (% ± SD)” value in assay [1] is reported as 34 ± 1%. For the same molecule, the IC50 was determined as 1300 ± 200 nM in assay [2] and 450 ± 100 nM in assay [3] (MCF7, cells grown for 96 h).

For `COc1cc(C(=O)c2cn(-c3ncccn3)cc2-c2ccc(N(C)C)cc2)cc(OC)c1OC` [Compound 22, (4-(4-(Dimethylamino)phenyl)-1-(pyrimidin-2-yl)-1H-pyrrol-3-yl)(3,4,5-trimethoxyphenyl)methanone], the “Colch. binding (% ± SD)” value in assay [1] turned out to be 80 ± 0.2%. Moreover, the IC50 is 680 ± 100 nM in assay [2] and 10 nM in assay [3] (MCF7, cells grown for 96 h).
